The values below come from patent US20250019377A1 (JACOBIO PHARMACEUTICALS CO., LTD, priority 2021, published 2025).

The subject of experiment [1] is p-ERK in NCI-H460 cells (K-Ras Q61H). The experiment can be described thus: Phospho-ERK1/2(THR202/TYR204) HTRF assay, NCI-H460. Format: cell-based. To be noted: Homo sapiens, 2 hours incubation.
Experiment [2] deals with p-ERK in AGS cells (K-Ras G12D). The experiment can be described thus: Phospho-ERK1/2(THR202/TYR204) HTRF assay, AGS. Format: cell-based. Conditions: Homo sapiens, 2 h, 2 hours incubation.
The subject of experiment [3] is NCI-H747 cells (K-Ras G13D).
Experiment [4] relates to p-ERK in SW620 cells (K-Ras G12V). Put plainly: Phospho-ERK1/2(THR202/TYR204) HTRF assay, SW620. The experiment is classed as cell-based. To be noted: Homo sapiens, SW-620, 2 h, 2 hours incubation.
Experiment [5] has as its system p-ERK in NCI-H747 cells (K-Ras G13D).
In another experiment the test system is SW620 cells (K-Ras G12V). The experiment can be described thus: 2D cell growth inhibition assay, SW620. The experiment is classed as cell-based. To be noted: Homo sapiens, SW-620, 144 h, 6 days, absolute IC50.
The subject of experiment [6] is Capan-2 cells (K-Ras G12V).
The test system of experiment [7] is p-ERK in TCC-PAN2 cells (K-Ras G12R). The experiment can be described thus: Phospho-ERK1/2(THR202/TYR204) HTRF assay, TCC-PAN2. Format: cell-based. To be noted: 2 hours incubation.
For the next experiment, the system named is AGS cells (K-Ras G12D). Put plainly: 2D cell growth inhibition assay, AGS. The experiment is classed as cell-based. To be noted: Homo sapiens, 144 h, 6 days, absolute IC50.
The test system of experiment [8] is RERF-LC-Ad1 cells (K-Ras G12A).
In experiment [9] the test system is p-ERK in NCI-H358 cells (K-Ras G12C). Put plainly: Phospho-ERK1/2(THR202/TYR204) HTRF assay, NCI-H358. The experiment is classed as cell-based. Conditions: Homo sapiens, 2 hours incubation.
Experiment [10] concerns TCC-PAN2 cells (K-Ras G12R). The experiment can be described thus: 3D cell growth inhibition assay, TCC-PAN2. Format: cell-based. Conditions: 144 h, 6 days, absolute IC50.
In experiment [11] the test system is NCI-H460 cells (K-Ras Q61H). Put plainly: 3D cell growth inhibition assay, NCI-H460. Format: cell-based. Conditions: Homo sapiens, 144 h, 6 days, absolute IC50.
Experiment [12] relates to p-ERK in MKN-1 cells (K-Ras WT amplification). Put plainly: Phospho-ERK1/2(THR202/TYR204) HTRF assay, MKN-1. Format: cell-based. To be noted: Homo sapiens; MKN-1, K-Ras WT, 2 hours incubation.
The test system of experiment [13] is AsPC-1 cells (K-Ras G12D). The experiment can be described thus: 2D cell growth inhibition assay, AsPC-1. The experiment is classed as cell-based. Conditions: Homo sapiens, ASPC1, 144 h, AsPC-1, K-Ras G12D, 6 days, absolute IC50.
The subject of experiment [14] is NCI-H358 cells (K-Ras G12C).
In another experiment the test system is MKN-1 cells (K-Ras WT). The experiment can be described thus: 3D cell growth inhibition assay, MKN-1. The experiment is classed as cell-based. To be noted: Homo sapiens, 144 h, MKN-1, K-Ras WT, 6 days, absolute IC50.

`C#Cc1c(F)ccc2cc(O)cc(-c3ncc4c(N5CCCOCC5)nc(OC[C@@]56CCCN5C[C@H](OC)C6)nc4c3F)c12` [Compound 11, 5-ethynyl-6-fluoro-4-(8-fluoro-2-(((2R,7aS)-2-methoxytetrahydro-1H-pyrrolizin-7a(5H)-yl)methoxy)-4-(1,4-oxazepan-4-yl)pyrido[4,3-d]pyrimidin-7-yl)naphthalen-2-ol]: the IC50 stood at 63.8 nM in experiment [1]; 14.9 nM in [2]; 56 nM in [3]; 18.7 nM in experiment [4]; 17.6 nM in experiment [5]; 34.1 nM in the experiment on SW620 cells (K-Ras G12V). Moreover, the half-inhibitory concentration (IC50) in experiment [6] is 311 nM; in [7], 560 nM; in the experiment on AGS cells (K-Ras G12D), 40.6 nM; in [8], 150 nM; in [9] it was 2.53 nM; in experiment [10], over 1000 nM. Further, the IC50 in experiment [11] stood at 866 nM; in experiment [12], 19.5 nM; in experiment [13], 380 nM; in experiment [14], 62.6 nM; with MKN-1 cells (K-Ras WT), 28.1 nM.

`C#Cc1c(F)ccc2cc(O)cc(-c3ncc4c(N5CCCOCC5)nc(OC[C@@]56CCCN5C[C@H](F)C6)nc4c3F)c12` [Compound 1, 5-ethynyl-6-fluoro-4-(8-fluoro-2-(((2R,7aS)-2-fluorotetrahydro-1H-pyrrolizin-7a(5H)-yl)methoxy)-4-(1,4-oxazepan-4-yl)pyrido[4,3-d]pyrimidin-7-yl)naphthalen-2-ol trifluoroacetic acid]: the concentration for half-maximal inhibition (IC50) worked out at 7.04 nM in [1]; 0.974 nM in experiment [2]; 5.65 nM in experiment [3]; 2.74 nM in experiment [4]; 1.64 nM in experiment [5]; 4.68 nM in the experiment with SW620 cells (K-Ras G12V). Further, the IC50 was found to be 28.7 nM in experiment [6]; 207 nM in [7]; 2.45 nM in the experiment on AGS cells (K-Ras G12D); 20.6 nM in experiment [8]; 2.2 nM in experiment [9]; 189 nM in experiment [10]. Also, the IC50 in [11] amounted to 75.1 nM; in experiment [12] it was 1.34 nM; in [13] it was 43.8 nM; with MKN-1 cells (K-Ras WT), 8.23 nM.

Take `C#Cc1c(F)ccc2cc(O)cc(-c3ncc4c(N5CCCO[C@@H]6C[C@@H]65)nc(OC[C@@]56CCCN5C[C@H](F)C6)nc4c3F)c12` (single isomer, unassigned) [Compound 7B]: the IC50 in experiment [1] came out at 1.66 nM; in [2] it was 0.255 nM; in [3] it was 0.807 nM; in [4], 1.01 nM; in experiment [5], 0.701 nM; in the experiment on SW620 cells (K-Ras G12V), 0.858 nM. In addition, the IC50 in [6] is 2.91 nM; in experiment [7], 13.5 nM; in the experiment with AGS cells (K-Ras G12D), 0.423 nM; in experiment [8] it was 2.52 nM; in experiment [9], 0.881 nM; in experiment [10] it was 41 nM. The IC50 was determined as 17.9 nM in [11]; 1 nM in experiment [12]; 2.73 nM in [13]; 2.57 nM in experiment [14]; 3.7 nM in the experiment on MKN-1 cells (K-Ras WT).

Turning to `C#Cc1c(C)ccc2cc(O)cc(-c3ncc4c(N5CCCOCC5)nc(OC[C@@]56CCCN5C[C@H](F)C6)nc4c3F)c12` [Compound 38, 5-ethynyl-4-(8-fluoro-2-(((2R,7aS)-2-fluorotetrahydro-1H-pyrrolizin-7a(5H)-yl)methoxy)-4-(1,4-oxazepan-4-yl)pyrido[4,3-d]pyrimidin-7-yl)-6-methylnaphthalen-2-ol trifluoroacetic acid], the IC50 in experiment [1] turned out to be 14.9 nM; in experiment [2] it was 2.16 nM; in [3] it was 10.4 nM; in [4], 7.72 nM; in [5], 3.17 nM; with SW620 cells (K-Ras G12V), 13.1 nM. Also, the IC50 was 57.8 nM in [6]; 218 nM in [7]; 2.73 nM in the experiment with AGS cells (K-Ras G12D); 2.23 nM in [9]; at least 1000 nM in experiment [10]; 159 nM in experiment [11]. In addition, the IC50 in [12] stood at 10.6 nM; in experiment [13] it was 77.3 nM; in [14], 13.6 nM; with MKN-1 cells (K-Ras WT), 10 nM.

On to `C#Cc1c(F)ccc2cc(O)cc(-c3nc(OC)c4c(N5CCCOCC5)nc(OC[C@@]56CCCN5C[C@H](F)C6)nc4c3F)c12` [Compound 65, 5-ethynyl-6-fluoro-4-(8-fluoro-2-(((2R,7aS)-2-fluorotetrahydro-1H-pyrrolizin-7a(5H)-yl)methoxy)-5-methoxy-4-(1,4-oxazepan-4-yl)pyrido[4,3-d]pyrimidin-7-yl)naphthalen-2-ol trifluoroacetic acid], for which the IC50 in experiment [1] came out at 7.82 nM; in experiment [2], 0.81 nM; in [3] it was 9.7 nM; in [4], 4.31 nM; in [5] it was 2.94 nM; in the experiment with SW620 cells (K-Ras G12V) it was 3.03 nM. For the same compound, the IC50 turned out to be 7.15 nM in experiment [6]; 74.9 nM in experiment [7]; 1.61 nM with AGS cells (K-Ras G12D); 25.9 nM in [8]; 1.24 nM in experiment [9]; 275 nM in experiment [10]. In addition, the 50% inhibitory concentration (IC50) in experiment [11] amounted to 37.2 nM; in experiment [12] it was 3.71 nM; in experiment [13], 29.2 nM; in experiment [14] it was 14.8 nM; with MKN-1 cells (K-Ras WT) it was 11 nM.

As for `C#Cc1c(Cl)ccc2cc(O)cc(-c3ncc4c(N5CCCOCC5)nc(OC[C@@]56CCCN5C[C@H](F)C6)nc4c3F)c12` [Compound 39, 6-chloro-5-ethynyl-4-(8-fluoro-2-(((2R,7aS)-2-fluorotetrahydro-1H-pyrrolizin-7a(5H)-yl)methoxy)-4-(1,4-oxazepan-4-yl)pyrido[4,3-d]pyrimidin-7-yl)naphthalen-2-ol trifluoroacetic acid], the IC50 was 9.92 nM in experiment [1]; 3.36 nM in [4]; 9.66 nM in the experiment on SW620 cells (K-Ras G12V); 156 nM in experiment [7]; 2.09 nM in the experiment with AGS cells (K-Ras G12D); 1.38 nM in [9]. For the same compound, the IC50 in [10] is 949 nM; in experiment [11], 125 nM; in experiment [12], 9.92 nM; in [13], 61.2 nM; in the experiment on MKN-1 cells (K-Ras WT) it was 7.34 nM.

Take `C#Cc1c(F)ccc2cc(O)cc(-c3nc(NC)c4c(N5CCCOCC5)nc(OC[C@@]56CCCN5C[C@H](F)C6)nc4c3F)c12` [Compound 53, 5-ethynyl-6-fluoro-4-(8-fluoro-2-(((2R,7aS)-2-fluorotetrahydro-1H-pyrrolizin-7a(5H)-yl)methoxy)-5-(methylamino)-4-(1,4-oxazepan-4-yl)pyrido[4,3-d]pyrimidin-7-yl)naphthalen-2-ol trifluoroacetic acid]: the IC50 in [1] came out at 17.5 nM; in [2], 2.66 nM; in experiment [3] it was 34 nM; in [4], 6.18 nM; in experiment [5] it was 6.93 nM; with SW620 cells (K-Ras G12V), 19.4 nM. The IC50 in experiment [6] is 153 nM; in experiment [7], 456 nM; in the experiment with AGS cells (K-Ras G12D) it was 9.17 nM; in [9], 3.86 nM; in experiment [10] it was at least 1000 nM; in [11], 24 nM. The half-maximal inhibitory concentration (IC50) in experiment [12] is 9.74 nM; in experiment [13], 88.2 nM; in experiment [14], 47.2 nM; in the experiment with MKN-1 cells (K-Ras WT), 25.7 nM.
